In patent US8586747B2, “3,3-dimethyl tetrahydroquinoline derivatives” (Hoffmann-La Roche Inc., priority 2010, dated 2013):

Test system: AMP-activated protein kinase (AMPK)
Assay: ADP Quest assay for AMPK activators
Type: biochemical
Parameters: key: fold AMPK activation with vs without activator at 30 µM
Details: fold of AMPK activation to phosphorylate SAMS peptide without and with an activator at the concentration of 30 µM
Summary of the method: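 AMPK phosphorylation of SAMS peptide with ATP monitored kinetically at room temperature by ADP Quest fluorescence (ex 530/em 590 nm), reaction started with enzyme. Compounds tested […] in 2-fold dilutions, AMP as reference. E30 is fold activation at 30 µM activator versus none.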

| Compound | E30 |
| --- | --- |
| CC(C)(C)c1ccc(-c2cccc(C3Nc4ccc(F)c(C(=O)NS(C)(=O)=O)c4CC3(C)C)c2)cc1 (stereo not drawn) [Example 157, N-[2-(4′-tert-Butyl-biphenyl-3-yl)-6-fluoro-3,3-dimethyl-1,2,3,4-tetrahydro-quinoline-5-carbonyl]-methanesulfonamide] | 1.36 |
| CC(C)(C)NC(=O)c1ccc(-c2cccc(C3Nc4ccc(C(=O)NS(C)(=O)=O)cc4CC3(C)C)c2)cc1 (stereo not drawn) [Example 160, 3′-(6-Methanesulfonylaminocarbonyl-3,3-dimethyl-1,2,3,4-tetrahydro-quinolin-2-yl)-biphenyl-4-carboxylic acid tert-butylamide] | 1.23 |
| CC1(C)Cc2cc(C(=O)NS(=O)(=O)C3CC3)ccc2NC1c1cccc(-c2ccc(S(C)(=O)=O)cc2)c1 (stereo not drawn) [Example 161, Cyclopropanesulfonic acid [2-(4′-methanesulfonyl-biphenyl-3-yl)-3,3-dimethyl-1,2,3,4-tetrahydro-quinoline-6-carbonyl]-amide] | 1.21 |
| CC(C)(Nc1ccccc1C1Nc2ccc(C(=O)O)cc2CC1(C)C)C(=O)O (stereo not drawn) [Example 163, 2-[2-(1-Carboxy-1-methyl-ethylamino)-phenyl]-3,3-dimethyl-1,2,3,4-tetrahydro-quinoline-6-carboxylic acid] | 3.68 |
| CC1(C)Cc2cc(C(=O)O)ccc2NC1c1ccccc1NC1(C(=O)O)CC1 (stereo not drawn) [Example 164, 2-[2-(1-Carboxy-cyclopropylamino)-phenyl]-3,3-dimethyl-1,2,3,4-tetrahydro-quinoline-6-carboxylic acid] | 1.78 |
| CN1CCC(NC(=O)c2cccc(C3Nc4ccc(C(=O)O)cc4CC3(C)C)c2)C1 (stereo not drawn) [Example 165, 3,3-dimethyl-2-(3-(1-methylpyrrolidin-3-ylcarbamoyl)phenyl)-1,2,3,4-tetrahydroquinoline-6-carboxylic acid] | 1.53 |
| CC1(C)Cc2cc(C(=O)O)ccc2NC1c1cccc(C(=O)NC2CCOC2)c1 (stereo not drawn) [Example 167, 3,3-Dimethyl-2-(3-(tetrahydrofuran-3-ylcarbamoyl)phenyl)-1,2,3,4-tetrahydroquinoline-6-carboxylic acid] | 1.4 |
| CC1(C)Cc2cc(C(=O)O)ccc2NC1c1cccc(C(=O)NC2CC2)c1 (stereo not drawn) [Example 170, 2-(3-(Cyclopropylcarbamoyl)phenyl)-3,3-dimethyl-1,2,3,4-tetrahydroquinoline-6-carboxylic acid] | 1.36 |
| CC1(C)Cc2cc(C(=O)O)ccc2NC1c1cccc(C(=O)N2CCCC2)c1 (stereo not drawn) [Example 171, 3,3-Dimethyl-2-(3-(pyrrolidine-1-carbonyl)phenyl)-1,2,3,4-tetrahydroquinoline-6-carboxylic acid] | 1.36 |
| CC1(C)Cc2cc(C(=O)O)ccc2NC1c1cccc(C(=O)NC2CCC2)c1 (stereo not drawn) [Example 172, 2-(3-(Cyclobutylcarbamoyl)phenyl)-3,3-dimethyl-1,2,3,4-tetrahydroquinoline-6-carboxylic acid] | 1.34 |
| CC(C)NC(=O)c1cccc(C2Nc3ccc(C(=O)O)cc3CC2(C)C)c1 (stereo not drawn) [Example 173, 2-(3-(Isopropylcarbamoyl)phenyl)-3,3-dimethyl-1,2,3,4-tetrahydroquinoline-6-carboxylic acid] | 1.24 |
| CC(C)C(=O)Nc1cc(C2Nc3ccc(C(=O)O)cc3CC2(C)C)ccc1F (stereo not drawn) [Example 174, 2-(4-Fluoro-3-isobutyramidophenyl)-3,3-dimethyl-1,2,3,4-tetrahydroquinoline-6-carboxylic acid] | 1.54 |
| CC1(C)Cc2cc(C(=O)O)ccc2NC1c1cccc(C(=O)NS(=O)(=O)C2CC2)c1 (stereo not drawn) [Example 176, 2-(3-(Cyclopropylsulfonylcarbamoyl)-phenyl)-3,3-dimethyl-1,2,3,4-tetrahydroquinoline-6-carboxylic acid] | 1.44 |
| CC(C)C(=O)Nc1cc(C2Nc3ccc(C(=O)O)cc3CC2(C)C)ccc1Cl (stereo not drawn) [Example 177, 2-(4-Chloro-3-isobutyramidophenyl)-3,3-dimethyl-1,2,3,4-tetrahydroquinoline-6-carboxylic acid] | 1.4 |
| CC1(C)Cc2cc(C(=O)O)ccc2NC1c1ccc(F)c(NC(=O)C2CC2)c1 (stereo not drawn) [Example 189, 2-(3-(Cyclopropanecarboxamido)-4-fluorophenyl)-3,3-dimethyl-1,2,3,4-tetrahydroquinoline-6-carboxylic acid] | 1.31 |
| CC1(C)Cc2cc(C(=O)O)ccc2NC1c1ccc(F)c(NC(=O)c2ccc(F)cc2Cl)c1 (stereo not drawn) [Example 190, 2-(3-(2-Chloro-4-fluorobenzamido)-4-fluorophenyl)-3,3-dimethyl-1,2,3,4-tetrahydroquinoline-6-carboxylic acid] | 1.3 |
| CC1(C)Cc2cc(C(=O)O)ccc2NC1c1cccc(C(=O)N2CCCCC2)c1 (stereo not drawn) [Example 191, 3,3-Dimethyl-2-(3-(piperidine-1-carbonyl)phenyl)-1,2,3,4-tetrahydroquinoline-6-carboxylic acid] | 1.27 |
| COCCNC(=O)c1cccc(C2Nc3ccc(C(=O)O)cc3CC2(C)C)c1 (stereo not drawn) [Example 192, 2-(3-(2-Methoxyethylcarbamoyl)phenyl)-3,3-dimethyl-1,2,3,4-tetrahydroquinoline-6-carboxylic acid] | 1.27 |

More lines, now with the values ahead:

| E30 | Compound |
| --- | --- |
| 1.34 | CC1(C)Cc2cc(C(=O)O)ccc2NC1c1ccccc1 (stereo not drawn) [Example 158, 3,3-Dimethyl-2-phenyl-1,2,3,4-tetrahydro-quinoline-6-carboxylic acid] |
| 1.31 | CC(C)NC(=O)c1ccc(-c2cccc(C3Nc4ccc(C(=O)O)cc4CC3(C)C)c2)cc1 (stereo not drawn) [Example 159, 2-(4′-Isopropylcarbamoyl-biphenyl-3-yl)-3,3-dimethyl-1,2,3,4-tetrahydro-quinoline-6-carboxylic acid] |
| 1.2 | CC(C)(C)NC(=O)c1ccc(-c2cccc(C3Nc4ccc(C(=O)O)cc4CC3(C)C)c2)cc1 (stereo not drawn) [Example 162, 2-(4′-tert-Butylcarbamoyl-biphenyl-3-yl)-3,3-dimethyl-1,2,3,4-tetrahydro-quinoline-6-carboxylic acid] |
| 1.43 | CC(C)S(=O)(=O)Nc1cccc(C2Nc3ccc(C(=O)O)cc3CC2(C)C)c1 (stereo not drawn) [Example 166, 3,3-Dimethyl-2-(3-(1-methylethylsulfonamido)phenyl)-1,2,3,4-tetrahydroquinoline-6-carboxylic acid] |
| 1.39 | CC1(C)Cc2cc(C(=O)O)ccc2NC1c1ccc(NS(=O)(=O)c2ccccc2)cc1 (stereo not drawn) [Example 168, 3,3-Dimethyl-2-(4-(phenylsulfonamido)phenyl)-1,2,3,4-tetrahydroquinoline-6-carboxylic acid] |
| 1.38 | CC(=O)Nc1ccc(S(=O)(=O)Nc2cccc(C3Nc4ccc(C(=O)O)cc4CC3(C)C)c2)cc1 (stereo not drawn) [Example 169, 2-(3-(4-Acetamidophenylsulfonamido)phenyl)-3,3-dimethyl-1,2,3,4-tetrahydroquinoline-6-carboxylic acid] |
| 1.5 | CC1(C)Cc2cc(C(=O)O)ccc2NC1c1cccc(C(=O)NS(=O)(=O)c2ccccc2)c1 (stereo not drawn) [Example 175, 3,3-Dimethyl-2-(3-(phenylsulfonylcarbamoyl)phenyl)-1,2,3,4-tetrahydroquinoline-6-carboxylic acid] |
| 1.36 | CC(C)C(=O)Nc1ccc(C2Nc3ccc(C(=O)O)cc3CC2(C)C)cc1 (stereo not drawn) [Example 178, 2-(4-Isobutyramidophenyl)-3,3-dimethyl-1,2,3,4-tetrahydroquinoline-6-carboxylic acid] |
| 1.33 | CC1(C)Cc2cc(C(=O)O)ccc2NC1c1cccc(C(=O)NS(C)(=O)=O)c1 (stereo not drawn) [Example 179, 3,3-Dimethyl-2-(3-(methylsulfonylcarbamoyl)-phenyl)-1,2,3,4-tetrahydroquinoline-6-carboxylic acid] |
| 1.32 | CC1(C)Cc2cc(C(=O)O)ccc2NC1c1ccc(F)c(NC(=O)c2ccccn2)c1 (stereo not drawn) [Example 180, 2-(4-Fluoro-3-(picolinamido)-phenyl)-3,3-dimethyl-1,2,3,4-tetrahydroquinoline-6-carboxylic acid] |
| 1.31 | CC1(C)Cc2cc(C(=O)O)ccc2NC1c1ccc(NS(=O)(=O)c2ccc(F)cc2)cc1 (stereo not drawn) [Example 181, 2-(4-(4-Fluorophenylsulfonamido)phenyl)-3,3-dimethyl-1,2,3,4-tetrahydroquinoline-6-carboxylic acid] |
| 1.26 | CC1(C)Cc2cc(C(=O)O)ccc2NC1c1ccc(NC(=O)c2ccc(F)cc2)cc1 (stereo not drawn) [Example 182, 2-(4-(4-Fluorobenzamido)phenyl)-3,3-dimethyl-1,2,3,4-tetrahydroquinoline-6-carboxylic acid] |
| 1.25 | Cc1ccc(S(=O)(=O)Nc2ccc(C3Nc4ccc(C(=O)O)cc4CC3(C)C)cc2)cc1 (stereo not drawn) [Example 183, 3,3-Dimethyl-2-(4-(4-methylphenylsulfonamido)phenyl)-1,2,3,4-tetrahydroquinoline-6-carboxylic acid] |
| 1.24 | CC1(C)Cc2cc(C(=O)O)ccc2NC1c1ccc(F)c(NC(=O)c2ccccc2)c1 (stereo not drawn) [Example 184, 2-(3-Benzamido-4-fluorophenyl)-3,3-dimethyl-1,2,3,4-tetrahydroquinoline-6-carboxylic acid] |
| 1.22 | CC1(C)Cc2cc(C(=O)O)ccc2NC1c1ccc(NC(=O)c2ccccc2)cc1 (stereo not drawn) [Example 185, 2-(4-Benzamidophenyl)-3,3-dimethyl-1,2,3,4-tetrahydroquinoline-6-carboxylic acid] |
| 1.21 | CC1(C)Cc2cc(C(=O)O)ccc2NC1c1ccc(NC(=O)c2ccccn2)cc1 (stereo not drawn) [Example 186, 3,3-Dimethyl-2-(4-(picolinamido)phenyl)-1,2,3,4-tetrahydroquinoline-6-carboxylic acid] |
| 1.38 | CNC(=O)c1cccc(C2Nc3ccc(C(=O)O)cc3CC2(C)C)c1 (stereo not drawn) [Example 187, 3,3-Dimethyl-2-(3-(methylcarbamoyl)phenyl)-1,2,3,4-tetrahydroquinoline-6-carboxylic acid] |
| 1.26 | CC1(C)Cc2cc(C(=O)O)ccc2NC1c1ccc(NC(=O)Cc2ccccc2)cc1 (stereo not drawn) [Example 193, 3,3-Dimethyl-2-(4-(2-phenylacetamido)phenyl)-1,2,3,4-tetrahydroquinoline-6-carboxylic acid] |
